Results reported in ChEMBL document CHEMBL3045865, “Synthesis and antitumor activity of new pyrido[2,3-d]pyrimidine derivatives” (2013).
Active and inactive are the calls of the source. No cut-off for these calls is given here.

Experiments:
[1] = Induction of bleomycin-dependent DNA damage at 0.1 mg/ml after 1 hr
[2] = Antineoplastic activity against Mus musculus (mouse) EACs transplanted in Swiss albino Mus musculus (mouse) assessed as decrease in WBC level at 5 mg/kg, ip administered 9 days measured on day 14 (reference value: 38.6 10^3/mm3); format: functional, Ehrlich; conditions: route intraperitoneal
[3] = Antineoplastic activity against Mus musculus (mouse) EACs transplanted in Swiss albino Mus musculus (mouse) assessed as increase in hematocritis level at 5 mg/kg, ip administered 9 days measured on day 14 (reference value: 35.5 g%); format: functional, Ehrlich; conditions: route intraperitoneal
[4] = Antineoplastic activity against Mus musculus (mouse) EACs transplanted in Swiss albino Mus musculus (mouse) assessed as increase in hemoglobin level at 5 mg/kg, ip administered 9 days measured on day 14 (reference value: 8.7 g%); format: functional, Ehrlich; conditions: route intraperitoneal
[5] = Antineoplastic activity against Mus musculus (mouse) EACs transplanted in Swiss albino mouse assessed as increase in life span at 20 mg/kg, ip after 9 days (reference value: 9.1%); format: functional, Ehrlich; conditions: route intraperitoneal
[6] = Antineoplastic activity against Mus musculus (mouse) EACs transplanted in Swiss albino mouse assessed as increase in life span at 5 mg/kg, ip after 9 days (reference value: 9.1%); format: functional, Ehrlich; conditions: route intraperitoneal
Ehrlich = test: Antineoplastic activity against Mus musculus (mouse) EACs transplanted in Swiss albino mouse assessed as reduction in viable tumor cell count at 5 mg/kg, ip after 5 days by Giemsa staining; format: functional, organism-based; parameters: dose 5 mg/kg

SMILES | Activity [1] | other results
COc1ccc(/C=N/NC(=O)c2cc(=O)[nH]c3[nH]c(=O)[nH]c(=O)c23)cc1 | Active | 
O=C(CCl)Sc1nnc(-c2cc(=O)[nH]c3[nH]c(=O)[nH]c(=O)c23)n1-c1ccc(F)cc1 | Active | 
NNC(=O)c1cc(=O)[nH]c2[nH]c(=O)[nH]c(=O)c12 | Active | 
O=C(CN1CCN(c2ccccc2)CC1)Sc1nnc(-c2cc(=O)[nH]c3[nH]c(=O)[nH]c(=O)c23)n1-c1ccc(F)cc1 | Active | 
O=c1cc(-c2nnc(S)n2-c2ccc(F)cc2)c2c(=O)[nH]c(=O)[nH]c2[nH]1 | Active | 
O=C(NNC(=S)Nc1ccccc1)c1cc(=O)[nH]c2[nH]c(=O)[nH]c(=O)c12 | Active | 
COc1ccc(N2CCN(CC(=O)NNC(=O)c3cc(=O)[nH]c4[nH]c(=O)[nH]c(=O)c34)CC2)cc1 | Active | 
O=c1[nH]cc(F)c(=O)[nH]1 [FLUOROURACIL] |  | Activity [2]: 13.8 ×10³ /mm3; Activity [3]: 42.3%; Activity [4]: 10 g%; Activity [5]: 16.7%
O=C(CN1CCN(c2ccccc2)CC1)NNC(=O)c1cc(=O)[nH]c2[nH]c(=O)[nH]c(=O)c12 | Active | 
O=C(NNC(=S)Nc1ccc(F)cc1)c1cc(=O)[nH]c2[nH]c(=O)[nH]c(=O)c12 | Active | 
COC(=O)c1cc(=O)[nH]c2[nH]c(=O)[nH]c(=O)c12 | Active | 
O=c1cc(-c2nnc(S)n2-c2ccccc2)c2c(=O)[nH]c(=O)[nH]c2[nH]1 | Active | Activity [2]: 11.2 ×10³ /mm3; Activity [3]: 51.6%; Activity [4]: 11.7 g%; Activity [6]: 18.6%; Activity (Ehrlich): Active
O=C(CCl)NNC(=O)c1cc(=O)[nH]c2[nH]c(=O)[nH]c(=O)c12 | Active | 
O=C(N/N=C/c1cccc([N+](=O)[O-])c1)c1cc(=O)[nH]c2[nH]c(=O)[nH]c(=O)c12 | Active | 
